System: C57/BL6J mice
Assay: In vivo plasma GLP-1 level-increasing action: plasma active GLP-1 level (ELISA) after oral administration
Details: 10 mg/kg oral; for Significant difference (p < 0.05) vs control group, plasma active GLP-1 level: 30 minutes, Student's t-test; for Plasma active GLP-1 level (relative value to control group as 100), average value: blood 30 minutes after, 0.5% CMC-Na group = 100
Description: Seven-week-old male C57/BL6J mice were purchased from CLEA Japan, Inc. for use, and they were subjected to an experiment after 1 week of a habituation period.
After the habituation period, the mice were subjected to 5.5 hours of food deprivation and 2 hours of water deprivation. Thereafter, a cyclic dipeptide dissolved or suspended in a 0.5% CMC-Na aqueous solution in 10 mg/kg was orally administered to each mouse forcibly. After 30 minutes, the blood was collected from the abdominal vena cava under anesthesia, and 1 μL of heparin sodium and 1 μL of 10 mM Sitagliptin phosphate were added to each collected blood, which was then subjected to centrifugation at 8000 rpm for 10 minutes to recover the plasma, and the plasma active GLP-1 level was measured by using the ELISA kit. In the analysis, the active GLP-1 level for a group administered with 0.5% CMC-Na aqueous solution was defined as 100, and relative values thereto were used.

## O=C(O)CC[C@@H]1NC(=O)[C@H](Cc2ccc(O)cc2)NC1=O [compound 87, Cyclo(Glu-Tyr)]
Table 12, Experiment 7
  Significant difference (p < 0.05) vs control group, plasma active GLP-1 level: No
  Plasma active GLP-1 level (relative value to control group as 100), average value: 141

## CC(C)[C@@H]1NC(=O)[C@H](Cc2ccc(O)cc2)NC1=O [compound 88, cyclo-valyl-tyrosine]
Table 12, Experiment 7
  Significant difference (p < 0.05) vs control group, plasma active GLP-1 level: Yes
  Plasma active GLP-1 level (relative value to control group as 100), average value: 385

## CCC(C)C1NC(=O)C(Cc2ccc(O)cc2)NC1=O (stereo not shown) [compound 89, Cyclo(Ile-Tyr)]
Table 12, Experiment 7
  Significant difference (p < 0.05) vs control group, plasma active GLP-1 level: No
  Plasma active GLP-1 level (relative value to control group as 100), average value: 222

## C[C@@H](O)[C@@H]1NC(=O)[C@H](Cc2ccc(O)cc2)NC1=O [compound 90, cyclo-threonyl-tyrosine]
Table 12, Experiment 7
  Significant difference (p < 0.05) vs control group, plasma active GLP-1 level: Yes
  Plasma active GLP-1 level (relative value to control group as 100), average value: 466

## O=C(O)C[C@@H]1NC(=O)[C@H](Cc2ccc(O)cc2)NC1=O [compound 91, Cyclo(Asp-Tyr)]
Table 12, Experiment 7
  Significant difference (p < 0.05) vs control group, plasma active GLP-1 level: No
  Plasma active GLP-1 level (relative value to control group as 100), average value: 181

## NC(=O)C[C@@H]1NC(=O)[C@H](Cc2ccc(O)cc2)NC1=O [compound 92, Cyclo(Asn-Tyr)]
Table 12, Experiment 7
  Significant difference (p < 0.05) vs control group, plasma active GLP-1 level: No
  Plasma active GLP-1 level (relative value to control group as 100), average value: 181

## NC(=O)CC[C@@H]1NC(=O)[C@H](Cc2ccc(O)cc2)NC1=O [compound 93, cyclo-glutaminyl-tyrosine]
Table 12, Experiment 7
  Significant difference (p < 0.05) vs control group, plasma active GLP-1 level: Yes
  Plasma active GLP-1 level (relative value to control group as 100), average value: 344

## N=C(N)NCCCC1NC(=O)C(Cc2ccc(O)cc2)NC1=O (stereo not shown) [compound 94, Cyclo(Arg-Tyr)]
Table 12, Experiment 7
  Significant difference (p < 0.05) vs control group, plasma active GLP-1 level: No
  Plasma active GLP-1 level (relative value to control group as 100), average value: 222

## CC(C)C[C@@H]1NC(=O)[C@H](Cc2cnc[nH]2)NC1=O [compound 103, Cyclo(His-Leu)]
Table 13, Experiment 8
  Significant difference (p < 0.05) vs control group, plasma active GLP-1 level: No
  Plasma active GLP-1 level (relative value to control group as 100), average value: 94

## CC(C)CC1NC(=O)C(C(C)O)NC1=O (stereo not shown) [compound 105, Cyclo(Thr-Leu)]
Table 13, Experiment 8
  Significant difference (p < 0.05) vs control group, plasma active GLP-1 level: No
  Plasma active GLP-1 level (relative value to control group as 100), average value: 94

## CC(C)CC1NC(=O)C(CC(N)=O)NC1=O (stereo not shown) [compound 106, Cyclo(Asn-Leu)]
Table 13, Experiment 8
  Significant difference (p < 0.05) vs control group, plasma active GLP-1 level: No
  Plasma active GLP-1 level (relative value to control group as 100), average value: 94

## CC(C)C1NC(=O)C(Cc2cnc[nH]2)NC1=O (stereo not shown) [compound 108, Cyclo(Val-His)]
Table 13, Experiment 8
  Significant difference (p < 0.05) vs control group, plasma active GLP-1 level: No
  Plasma active GLP-1 level (relative value to control group as 100), average value: 118

## CC(C)C1NC(=O)C(CCC(=O)O)NC1=O (stereo not shown) [compound 118, Cyclo(Val-Glu)]
Table 13, Experiment 8
  Significant difference (p < 0.05) vs control group, plasma active GLP-1 level: No
  Plasma active GLP-1 level (relative value to control group as 100), average value: 112

## CCC(C)C1NC(=O)C(CCSC)NC1=O (stereo not shown) [compound 119, Cyclo(Met-Ile)]
Table 13, Experiment 8
  Significant difference (p < 0.05) vs control group, plasma active GLP-1 level: No
  Plasma active GLP-1 level (relative value to control group as 100), average value: 106

## CSCCC1NC(=O)C(Cc2cnc[nH]2)NC1=O (stereo not shown) [compound 120, cyclo-methionyl-histidine]
Table 13, Experiment 8
  Significant difference (p < 0.05) vs control group, plasma active GLP-1 level: Yes
  Plasma active GLP-1 level (relative value to control group as 100), average value: 154

## CC1NC(=O)C(C(C)C)NC1=O (stereo not shown) [compound 122, Cyclo(Val-Ala)]
Table 13, Experiment 8
  Significant difference (p < 0.05) vs control group, plasma active GLP-1 level: No
  Plasma active GLP-1 level (relative value to control group as 100), average value: 94

## CCC(C)C1NC(=O)C(C)NC1=O (stereo not shown) [compound 123, Cyclo(Ile-Ala)]
Table 14, Experiment 9
  Significant difference (p < 0.05) vs control group, plasma active GLP-1 level: No
  Plasma active GLP-1 level (relative value to control group as 100), average value: 120

## CSCCC1NC(=O)C(C)NC1=O (stereo not shown) [compound 125, cyclo-methionyl-alanine]
Table 14, Experiment 9
  Significant difference (p < 0.05) vs control group, plasma active GLP-1 level: Yes

## CSCC[C@@H]1NC(=O)CNC1=O [compound 127, cyclo-methionyl-glycine]
Table 14, Experiment 9
  Significant difference (p < 0.05) vs control group, plasma active GLP-1 level: Yes
  Plasma active GLP-1 level (relative value to control group as 100), average value: 124

## CC(C)C1NC(=O)C(CO)NC1=O (stereo not shown) [compound 132, cyclo-valyl-serine]
Table 14, Experiment 9
  Significant difference (p < 0.05) vs control group, plasma active GLP-1 level: Yes
  Plasma active GLP-1 level (relative value to control group as 100), average value: 129

## CC[C@H](C)[C@@H]1NC(=O)[C@H](CO)NC1=O [compound 133, cyclo-isoleucyl-serine]
Table 14, Experiment 9
  Significant difference (p < 0.05) vs control group, plasma active GLP-1 level: Yes

## CCC(C)C1NC(=O)C(C(C)C)NC1=O (stereo not shown) [compound 138, Cyclo(Ile-Val)]
Table 14, Experiment 9
  Significant difference (p < 0.05) vs control group, plasma active GLP-1 level: No
  Plasma active GLP-1 level (relative value to control group as 100), average value: 96

## CC(C)C1NC(=O)C(C(C)O)NC1=O (stereo not shown) [compound 139, cyclo-valyl-threonine]
Table 14, Experiment 9
  Significant difference (p < 0.05) vs control group, plasma active GLP-1 level: Yes
  Plasma active GLP-1 level (relative value to control group as 100), average value: 120

## CC(C)C1NC(=O)C(CC(=O)O)NC1=O (stereo not shown) [compound 140, cyclo-valyl-aspartic acid]
Table 14, Experiment 9
  Significant difference (p < 0.05) vs control group, plasma active GLP-1 level: Yes
  Plasma active GLP-1 level (relative value to control group as 100), average value: 120

## CC(C)[C@@H]1NC(=O)[C@H](CC(N)=O)NC1=O [compound 141, cyclo-asparaginyl-valine]
Table 15, Experiment 10
  Significant difference (p < 0.05) vs control group, plasma active GLP-1 level: Yes
  Plasma active GLP-1 level (relative value to control group as 100), average value: 191

## CC(C)CC1NC(=O)C(CCC(=O)O)NC1=O (stereo not shown) [compound 145, cyclo-glutamyl-leucine]
Table 15, Experiment 10
  Significant difference (p < 0.05) vs control group, plasma active GLP-1 level: Yes
  Plasma active GLP-1 level (relative value to control group as 100), average value: 236

## CC(C)CC1NC(=O)C(CC(=O)O)NC1=O (stereo not shown) [compound 146, cyclo-aspartyl-leucine]
Table 15, Experiment 10
  Significant difference (p < 0.05) vs control group, plasma active GLP-1 level: Yes
  Plasma active GLP-1 level (relative value to control group as 100), average value: 259

## CC[C@H](C)[C@@H]1NC(=O)[C@H](Cc2cnc[nH]2)NC1=O [compound 148, cyclo-isoleucyl-histidine]
Table 15, Experiment 10
  Significant difference (p < 0.05) vs control group, plasma active GLP-1 level: Yes
  Plasma active GLP-1 level (relative value to control group as 100), average value: 259

## CC[C@H](C)[C@@H]1NC(=O)[C@H](CCCCN)NC1=O [compound 150, cyclo-isoleucyl-lysine]
Table 15, Experiment 10
  Significant difference (p < 0.05) vs control group, plasma active GLP-1 level: Yes
  Plasma active GLP-1 level (relative value to control group as 100), average value: 282

## CC(C)CC1NC(=O)C(CO)NC1=O (stereo not shown) [compound 151, cyclo-seryl-leucine]
Table 15, Experiment 10
  Significant difference (p < 0.05) vs control group, plasma active GLP-1 level: Yes
  Plasma active GLP-1 level (relative value to control group as 100), average value: 259

## CC(C)CC1NC(=O)C(CCC(N)=O)NC1=O (stereo not shown) [compound 152, cyclo-glutaminyl-leucine]
Table 15, Experiment 10
  Significant difference (p < 0.05) vs control group, plasma active GLP-1 level: Yes
  Plasma active GLP-1 level (relative value to control group as 100), average value: 282

## CC(C)[C@@H]1NC(=O)CNC1=O [compound 155, Cyclo(Val-Gly)]
Table 15, Experiment 10
  Significant difference (p < 0.05) vs control group, plasma active GLP-1 level: No
  Plasma active GLP-1 level (relative value to control group as 100), average value: 55

## CCC(C)C1NC(=O)CNC1=O (stereo not shown) [compound 156, Cyclo(Ile-Gly)]
Table 15, Experiment 10
  Significant difference (p < 0.05) vs control group, plasma active GLP-1 level: No
  Plasma active GLP-1 level (relative value to control group as 100), average value: 145

## CSCCC1NC(=O)C(C(C)C)NC1=O (stereo not shown) [compound 160, cyclo-methionyl-valine]
Table 15, Experiment 10
  Significant difference (p < 0.05) vs control group, plasma active GLP-1 level: Yes
  Plasma active GLP-1 level (relative value to control group as 100), average value: 304

## CC[C@H](C)[C@@H]1NC(=O)[C@H]([C@H](C)O)NC1=O [compound 161, cyclo-isoleucyl-threonine]
Table 15, Experiment 10
  Significant difference (p < 0.05) vs control group, plasma active GLP-1 level: Yes
  Plasma active GLP-1 level (relative value to control group as 100), average value: 282

## CC[C@H](C)[C@@H]1NC(=O)[C@H](CC(=O)O)NC1=O [compound 162, cyclo-isoleucyl-aspartic acid]
Table 15, Experiment 10
  Significant difference (p < 0.05) vs control group, plasma active GLP-1 level: Yes
  Plasma active GLP-1 level (relative value to control group as 100), average value: 259

## CC[C@H](C)C1NC(=O)[C@H](CC(N)=O)NC1=O (stereo partly shown) [compound 163, cyclo-asparaginyl-isoleucine]
Table 15, Experiment 10
  Significant difference (p < 0.05) vs control group, plasma active GLP-1 level: Yes
  Plasma active GLP-1 level (relative value to control group as 100), average value: 327

## CSCC[C@@H]1NC(=O)[C@H]([C@H](C)O)NC1=O [compound 169, cyclo-methionyl-threonine]
Table 15, Experiment 10
  Significant difference (p < 0.05) vs control group, plasma active GLP-1 level: Yes
  Plasma active GLP-1 level (relative value to control group as 100), average value: 282

## CC1NC(=O)C(CS)NC1=O (stereo not shown) [compound 177, cyclo-alanyl-cysteine]
Table 15, Experiment 10
  Significant difference (p < 0.05) vs control group, plasma active GLP-1 level: Yes
  Plasma active GLP-1 level (relative value to control group as 100), average value: 282

## O=C1CNC(=O)C(CS)N1 (stereo not shown) [compound 178, cyclo-glycyl-cysteine]
Table 15, Experiment 10
  Significant difference (p < 0.05) vs control group, plasma active GLP-1 level: Yes
  Plasma active GLP-1 level (relative value to control group as 100), average value: 282

## O=C(O)CCC1NC(=O)C(CS)NC1=O (stereo not shown) [compound 179, cyclo-glutamyl-cysteine]
Table 15, Experiment 10
  Significant difference (p < 0.05) vs control group, plasma active GLP-1 level: Yes
  Plasma active GLP-1 level (relative value to control group as 100), average value: 304

## O=C1N[C@@H](CS)C(=O)N[C@H]1CO [compound 180, cyclo-seryl-cysteine]
Table 15, Experiment 10
  Significant difference (p < 0.05) vs control group, plasma active GLP-1 level: Yes
  Plasma active GLP-1 level (relative value to control group as 100), average value: 259
